In patent US6051712A, “Piperidine derivatives having renin inhibiting activity” (Hoffmann-La Roche Inc., priority 1995, dated 2000):
pIC50: −log10 of the molar value. Counter-ions that a name gives are not always drawn. Like-named read-outs stand apart in the source and are kept apart here.

Target: T1, human renin (Homo sapiens, UniProt P00797)
T1 sequence (P00797 67-406): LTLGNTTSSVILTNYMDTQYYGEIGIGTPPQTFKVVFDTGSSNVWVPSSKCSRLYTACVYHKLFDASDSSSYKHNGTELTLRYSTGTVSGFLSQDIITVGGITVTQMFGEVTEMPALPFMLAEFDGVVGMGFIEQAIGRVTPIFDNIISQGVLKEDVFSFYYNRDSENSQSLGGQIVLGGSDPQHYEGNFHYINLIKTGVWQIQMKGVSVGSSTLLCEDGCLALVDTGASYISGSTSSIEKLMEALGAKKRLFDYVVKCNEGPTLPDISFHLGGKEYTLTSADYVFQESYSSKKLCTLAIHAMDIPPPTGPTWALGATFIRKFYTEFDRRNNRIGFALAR
Assay: In vitro test with pure human renin (angiotensin I production from human tetradecapeptide renin substrate, measured by RIA)
Format: biochemical
Experimental: In vitro test with pure human renin
The test is carried out in Eppendorf test tubes. The incubation mixture consists of (1) 100 μl of human renin in buffer A (0.1M sodium phosphate solution, pH 7.4, containing 0.1% bovine serum albumin, 0.1% sodium azide and 1 mM ethylenediaminetetraacetic acid), sufficient for a renin activity of 2-3 ng of angiotensin l/ml/hr.; (2) 145 μl of buffer A: (3) 30 μl of 10 mM human tetradecapeptide renin substrate (hTD) in 10 mM hydrochloric acid: (4) […] of dimethyl sulphoxide with or without inhibitor and (5) 10 μl of a 0.03 molar solution of hydroxyquinoline sulphate in water.
The samples are incubated for three hours at 37° C. and, respectively, 4° C. in triplicate. 2×100 μl samples per test tube are used in order to measure the production of angiotensin I via RIA (standard radioimmunoassay; clinical assay solid phase kit). […] The production of angiotensin I is determined by the difference between the test at 37° C, and that at 4° C.
The following controls are carried out:
(a) Incubation of hTD samples without renin and without inhibitor at 37° C. and 4° C. The difference between these two values gives the base value of the angiotensin I production.
(b) Incubation of hTD samples with renin, but without inhibitor at 37° C. and 4° C. The difference between these values gives the maximum value of the angiotensin I production.
In each sample the base value of the angiotensin I production is subtracted from the angiotensin I production which is determined. The difference between the maximum value and the base value gives the value of the maximum substrate hydrolysis (=100%) by renin.
The IC50 values are determined from a linear regression curve from a logit-log plot.

[1] = pure human renin, pH 7.4, three hours at 37° C. (less 4° C.), human tetradecapeptide substrate, angiotensin I by RIA, read-out: IC50 values (concentration of the inhibitor at which the enzymatic activity is inhibited by 50%)

SMILES: OCC(O)COc1ccc2ccc(CO[C@H]3CNCC[C@@H]3c3ccc(OCCCOCc4ccccc4)cc3)cc2c1 (mixture of isomers) [O, a mixture of (RS)- and (SR)-3-[7-[(3RS,4RS)-4-[4-(3-benzyloxy-propoxy)-phenyl]-piperidin-3-yloxymethyl]-naphthalen-2-yloxy]-propane-1,2-diol]
- pIC50 [1]: 7.77

SMILES: OCC(O)COCCOc1ccc2ccc(CO[C@H]3CNCC[C@@H]3c3ccc(OCCCOCc4ccccc4)cc3)cc2c1 (mixture of isomers) [P, a mixture of (RS)- and (SR)-3-[2-[7-[(3RS,4RS)-4-[4-(3-benzyloxy-propoxy)-phenyl]-piperidin-3-yloxymethyl]-naphthalen-2-yloxy]-ethoxy]-propane-1,2-diol hydrochloride (1:1)]
- pIC50 [1]: 8.22

SMILES: OCC(O)COCc1ccc2ccc(CO[C@H]3CNCC[C@@H]3c3ccc(OCCCOCc4ccccc4)cc3)cc2c1 (mixture of isomers) [T, a mixture of (3RS,4RS)- and (3SR,4SR)-4-[4-(3-benzyloxy-propoxy)-phenyl]-3-[7-[(RS)-2,3-dihydroxy-propoxymethyl]-naphthalen-2-ylmethoxy]-piperidine]
- pIC50 [1]: 8.30

SMILES: OCC(O)COCc1ccc2cc(CO[C@H]3CNCC[C@@H]3c3ccc(OCCCOCc4ccccc4)cc3)ccc2c1 (mixture of isomers) [U, a mixture of (3RS,4RS)- and (3SR,4SR)-4-[4-(3-benzyloxy-propoxy)-phenyl]-3-[6-[(RS)-2,3-dihydroxy-propoxymethyl]-naphthalen-2-ylmethoxy]-piperidine]
- pIC50 [1]: 7.62

SMILES: O=C(OCCOc1ccc([C@H]2CCNC[C@@H]2OCc2ccc3ccccc3c2)cc1)c1cccs1 (racemic) [A, (3RS,4RS)-2-[4-(3-naphthalen-2-ylmethoxy-piperidin-4-yl)-phenoxy]-ethylthiophene-2-carboxylate hydrochloride]
- pIC50 [1]: 7.96

SMILES: COc1ccccc1COc1cc(CO[C@H]2CNCC[C@@H]2c2ccc(OCCOC(=O)c3ccccc3)cc2)cc2ccccc12 (racemic) [C, (3RS,4RS)-2-[4-[3-[4-(2-methoxy-benzyloxy)-naphthalen-2-ylmethoxy]-piperidin-4-yl]-phenoxy]-ethyl benzoate hydrochloride]
- pIC50 [1]: 7.15

SMILES: CCC[C@@H]1CNC[C@H](OCc2cc(OCc3ccccc3)c3ccccc3c2)[C@H]1c1ccc(F)cc1 (racemic) [Compound I, (3RS,4RS,5SR)-3-(4-benzyloxy-naphthalen-2-ylmethoxy)-4-(4-fluoro-phenyl)-5-propyl-piperidine]
- pIC50 [1]: 6.50

SMILES: c1ccc(COCCCOc2ccc([C@H]3CCNC[C@@H]3OCc3ccc4c(c3)OCCO4)cc2)cc1 (racemic) [D, (3RS,4RS)-4-[4-(3-benzyloxy-propoxy)-phenyl]-3-(2,3-dihydro-benzo[1,4]dioxin-6-ylmethoxy)-piperidine]
- pIC50 [1]: 7.40

SMILES: c1ccc(-c2noc(COc3ccc([C@H]4CCNC[C@@H]4OCc4ccc5ccccc5c4)cc3)n2)cc1 (racemic) [E, (3RS,4RS)-3-(naphthalen-2-ylmethoxy)-4-[4-(3-phenyl-[1,2,4]oxadiazol-5-ylmethoxy)-phenyl]-piperidine trifluoroacetate]
- pIC50: 7.39

SMILES: c1ccc(-c2cc(COc3ccc([C@H]4CCNC[C@@H]4OCc4ccc5ccccc5c4)cc3)on2)cc1 (racemic) [F, (3RS,4RS)-3-(naphthalen-2-ylmethoxy)-4-[4-(3-phenyl-isoxazol-5-ylmethoxy)-phenyl]-piperidine trifluoroacetate]
- pIC50 [1]: 7.24

SMILES: c1ccc(SCCCc2ccc([C@H]3CCNC[C@@H]3OCc3ccc4ccccc4c3)cc2)cc1 (racemic) [G, (3RS,4RS)-3-(naphthalen-2-ylmethoxy)-4-[4-(3-phenylsulphanyl-propyl)-phenyl]-piperidine]
- pIC50 [1]: 7.48

SMILES: Oc1cc(CO[C@H]2CNCC[C@@H]2c2ccc(CCSc3nc4ccccc4s3)cc2)cc2ccccc12 (racemic) [H, (3RS,4RS)-3-[4-[4-[2-(benzothiazol-2-ylsulphanyl)-ethyl]-phenyl]-piperidin-3-yloxymethyl]-naphthalen-1-ol]
- pIC50 [1]: 7.14

SMILES: COC[C@@H]1CNC[C@H](OCc2ccc3ccccc3c2)[C@H]1c1ccc(COCc2ccccc2)cc1 (racemic) [J, (3SR,4RS,5RS)-4-(4-benzyloxymethyl-phenyl)-3-methoxymethyl-5-(naphthalen-2-ylmethoxy)-piperidine]
- pIC50 [1]: 7.77

SMILES: O=C(Cc1ccc2ccccc2c1)[C@H]1CNC[C@@H](COCCN2CCOCC2)[C@@H]1c1ccc(OCCCOCc2ccccc2)cc1 (racemic) [KK, 1-[(3RS,4SR,5SR)-4-[4-(3-benzyloxy-propoxy)-phenyl]-5-(2-morpholin-4-yl-ethoxymethyl)-piperidin-3-yl]-2-naphthalen-2-yl-ethanone]
- pIC50 [1]: 7.92

SMILES: Fc1ccc([C@H]2C[C@@H]3CC[C@@H](N3)[C@@H]2OCc2cc(OCc3ccccc3)c3ccccc3c2)cc1 (racemic) [L, (1RS,2RS,3RS,5SR)-2-(4-benzyloxy-naphthalen-2-ylmethoxy)-3-(4-fluoro-phenyl)-8-aza-bicyclo[3.2.1]octane]
- pIC50: 5.51

SMILES: c1ccc(COCCCOc2ccc([C@H]3CCNC[C@@H]3OCc3ccc4ccccc4c3)cc2)cc1 (racemic) [M, (3RS,4RS)-4-[4-(3-benzyloxy-propoxy)-phenyl]-3-(naphthalen-2-ylmethoxy)-piperidine]
- pIC50: 8.10

SMILES: c1ccc(COCCCOc2ccc([C@H]3CCNC[C@@H]3OCc3ccc4ccc(OCCN5CCOCC5)cc4c3)cc2)cc1 (racemic) [N, 4-[2-[7-[(3RS,4RS)-4-[4-(3-benzyloxy-propoxy)-phenyl]-piperidin-3-yloxymethyl]-naphthalen-2-yloxy]-ethyl]-morpholine hydrochloride (1:2)]
- pIC50 [1]: 7.92

SMILES: COc1ccccc1COCCCOc1ccc([C@H]2CCNC[C@@H]2OCc2ccc3cccnc3c2)cc1 (racemic) [OO, (3RS,4RS)-4-[4-[3-(2-methoxy-benzyloxy)-propoxy]-phenyl]-3-(quinolin-7-ylmethoxy)-piperidine]
- pIC50 [1]: 8.22

SMILES: OCCOCc1ccc2ccc(CO[C@H]3CNCC[C@@H]3c3ccc(OCCCOCc4ccccc4)cc3)cc2c1 (racemic) [PP, 2-(7-{(3RS,4RS)-4-[4-(3-benzyloxy-propoxy)-phenyl]-piperidin-3-yloxymethyl}-naphthalen-2-ylmethoxy)-ethanol]
- pIC50 [1]: 8.70

SMILES: CN1CCN(CCOc2ccc3ccc(CO[C@H]4CNCC[C@@H]4c4ccc(OCCCOCc5ccccc5)cc4)cc3c2)CC1 (racemic) [Q, 1-[2-[7-[(3RS,4RS)-4-[4-(3-benzyloxy-propoxy)-phenyl]-piperidin-3-yloxymethyl]-naphthalen-2-yloxy]-ethyl]-4-methyl-piperazine hydrochloride (1:3)]
- pIC50 [1]: 8.30

SMILES: CN(C)Cc1ccc2ccc(CO[C@H]3CNCC[C@@H]3c3ccc(OCCCOCc4ccccc4)cc3)cc2c1 (racemic) [QQ, (7-{(3RS,4RS)-4-[4-(3-benzyloxy-propoxy)-phenyl]-piperidin-3-yloxymethyl}-naphthalen-2-ylmethyl)-dimethyl-amine]
- pIC50 [1]: 8.70

SMILES: COc1cc(CO[C@H]2CNC[C@@H](O)[C@@H]2c2ccc(OCCCOCc3ccccc3)cc2)c(OC)c2ccccc12 (racemic) [S, (3RS,4SR,5SR)-4-[4-(3-benzyloxy-propoxy)-phenyl]-3-(1,4-dimethoxy-naphthalen-2-ylmethoxy)-piperidin-5-ol]
- pIC50 [1]: 8.70

SMILES: OCCCCO[C@@H]1CNC[C@H](OCc2ccc3ccccc3c2)[C@H]1c1ccc(OCCCOCc2ccccc2)cc1 (racemic) [V, 4-[(3RS,4SR,5SR)-4-[4-(3-benzyloxy-propoxy)-phenyl]-3-(naphthalen-2-ylmethoxy)-piperidin-5-yloxy]-butan-1-ol]
- pIC50 [1]: 8.70

SMILES: OCCCO[C@@H]1CNC[C@H](OCc2ccc3ccccc3c2)[C@H]1c1ccc(OCCCOCc2ccccc2)cc1 (racemic) [W, 3-[(3RS,4SR,5SR)-4-[4-(3-benzyloxy-propoxy)-phenyl]-3-(naphthalen-2-ylmethoxy)-piperidin-5-yloxy]-propan-1-ol]
- pIC50 [1]: 8.70

SMILES: COc1ccccc1COCCCOc1ccc([C@H]2CCNC[C@@H]2OCc2ccc3ccc(=O)[nH]c3c2)cc1 (racemic) [WW, (3RS,4RS)-4-[4-[3-(2-methoxy-benzyloxy)-propoxy]-phenyl]-3-(2-oxo-1,2-dihydro-quinolin-7-ylmethoxy)-piperidine]
- pIC50 [1]: 8.05

SMILES: CN1CCN(CCO[C@@H]2CNC[C@H](OCc3ccc4ccccc4c3)[C@H]2c2ccc(OCCCOCc3ccccc3)cc2)CC1 (racemic) [X, 1-{2-[(3RS,4RS,5SR)-4-[4-(3-benzyloxy-propoxy)-phenyl]-3-(naphthalen-2-ylmethoxy)-piperidin-5-yloxy]-ethyl}-4-methyl-piperazine]
- pIC50 [1]: 8.52
